Patent US9241921B2, “Photosensitizer composition for treating skin disorders” (priority 2011, dated 2016)

Tested on: acne vulgaris
Test: Open-label prospective human study of topical ALA-PDT in acne vulgaris
Type: in vivo
Conditions: after treatment, amelioration of acne (FIG. 5)
Procedure: Photodynamic therapy with topical ALA composition as described in Example 1 was tested for the treatment of acne vulgaris, in an open-label prospective human study. 22 subjects with acne on their back were treated at 4 different sites with one of the following at each site: ALA plus red light (ALA-PDT), ALA alone, light alone, and untreated control. Half of the subjects were treated once; half were treated 4 times. 20% topical ALA of Example 1 was applied with 3 hr occlusion, and 150 J/cm^2 broad band light ([…]) was applied to the treated site. Sebum excretion rate and auto-fluorescence from follicular bacteria were measured before, and at 2, 3, 10, and 20 weeks after treatment. […]
Subjects were randomly divided into single treatment group or multiple treatment group. At baseline, clinical evaluations, natural bacterial porphyrin fluorescence photography, and sebum excretion rate (SER) evaluation were performed. […] In both groups, subjects returned one week after treatments for clinical evaluations and at weeks 2, 3, 10 and 20 for clinical, fluorescence, and SER evaluations.
Each subject's acne was visually assessed using an inflammatory acne score modified from that previously described (Burke et al., 1994). […] The numbers of comedo, inflammatory comedo, papules, pustules, nodules and cysts in each test area were recorded. […]

Compound: O=C(OOC(=O)c1ccccc1)c1ccccc1 [Benzoyl Peroxide]
- time until therapeutic effect occurred: eight to twelve
